Test results taken from the supplement of paper PMC12463676, “Small-molecule dissolution of stress granules by redox modulation benefits ALS models” (Nature Chemical Biology, 2025).

Compound: O=[As]([O-])(O)O.[K+] [potassium arsenate]
Experiment: thermal stability z-score vs DMSO; higher = more thermally stabilized by treatment
Details: HeLa; arsenate concentration 1 mM
Experimental: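 Cellular thermal proteome profiling in HeLa cells treated with 1 mM arsenate for 1 h (DMSO pretreatment), heated to ten temperatures (37-66.3 °C). Soluble protein was quantified by TMT mass spectrometry relative to DMSO controls; the thermal stability score was transformed to a z-score; mean of n = 3 experiments.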
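Note: each temperature applied for 3 min, abundance score taken as mean log2 fold change at the two lowest temperatures, z-score obtained by mean subtraction and division by SD.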

Sequence of UniProt Q99871 (Q99871 whole entry): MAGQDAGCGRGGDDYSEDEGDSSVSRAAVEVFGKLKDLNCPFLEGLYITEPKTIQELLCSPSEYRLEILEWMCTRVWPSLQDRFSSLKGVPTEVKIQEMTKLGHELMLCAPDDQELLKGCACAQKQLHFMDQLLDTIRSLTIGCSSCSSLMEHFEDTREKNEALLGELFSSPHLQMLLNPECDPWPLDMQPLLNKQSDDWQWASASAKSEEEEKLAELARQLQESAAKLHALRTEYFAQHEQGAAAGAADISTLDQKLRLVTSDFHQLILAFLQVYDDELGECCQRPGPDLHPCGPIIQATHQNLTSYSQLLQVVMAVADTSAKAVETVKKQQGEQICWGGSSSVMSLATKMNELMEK
Sequence of UniProt Q96BY9 (Q96BY9 whole entry): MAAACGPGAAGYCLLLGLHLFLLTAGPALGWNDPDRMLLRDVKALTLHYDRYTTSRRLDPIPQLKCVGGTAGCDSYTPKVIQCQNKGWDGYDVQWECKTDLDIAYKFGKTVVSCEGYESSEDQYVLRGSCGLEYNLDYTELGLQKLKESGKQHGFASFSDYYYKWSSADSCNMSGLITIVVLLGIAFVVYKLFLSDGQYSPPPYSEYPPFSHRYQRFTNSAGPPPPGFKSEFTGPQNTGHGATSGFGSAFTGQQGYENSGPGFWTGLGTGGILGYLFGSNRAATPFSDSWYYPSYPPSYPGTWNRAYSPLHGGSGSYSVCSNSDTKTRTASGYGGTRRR
Sequence of UniProt P23229 (P23229 whole entry): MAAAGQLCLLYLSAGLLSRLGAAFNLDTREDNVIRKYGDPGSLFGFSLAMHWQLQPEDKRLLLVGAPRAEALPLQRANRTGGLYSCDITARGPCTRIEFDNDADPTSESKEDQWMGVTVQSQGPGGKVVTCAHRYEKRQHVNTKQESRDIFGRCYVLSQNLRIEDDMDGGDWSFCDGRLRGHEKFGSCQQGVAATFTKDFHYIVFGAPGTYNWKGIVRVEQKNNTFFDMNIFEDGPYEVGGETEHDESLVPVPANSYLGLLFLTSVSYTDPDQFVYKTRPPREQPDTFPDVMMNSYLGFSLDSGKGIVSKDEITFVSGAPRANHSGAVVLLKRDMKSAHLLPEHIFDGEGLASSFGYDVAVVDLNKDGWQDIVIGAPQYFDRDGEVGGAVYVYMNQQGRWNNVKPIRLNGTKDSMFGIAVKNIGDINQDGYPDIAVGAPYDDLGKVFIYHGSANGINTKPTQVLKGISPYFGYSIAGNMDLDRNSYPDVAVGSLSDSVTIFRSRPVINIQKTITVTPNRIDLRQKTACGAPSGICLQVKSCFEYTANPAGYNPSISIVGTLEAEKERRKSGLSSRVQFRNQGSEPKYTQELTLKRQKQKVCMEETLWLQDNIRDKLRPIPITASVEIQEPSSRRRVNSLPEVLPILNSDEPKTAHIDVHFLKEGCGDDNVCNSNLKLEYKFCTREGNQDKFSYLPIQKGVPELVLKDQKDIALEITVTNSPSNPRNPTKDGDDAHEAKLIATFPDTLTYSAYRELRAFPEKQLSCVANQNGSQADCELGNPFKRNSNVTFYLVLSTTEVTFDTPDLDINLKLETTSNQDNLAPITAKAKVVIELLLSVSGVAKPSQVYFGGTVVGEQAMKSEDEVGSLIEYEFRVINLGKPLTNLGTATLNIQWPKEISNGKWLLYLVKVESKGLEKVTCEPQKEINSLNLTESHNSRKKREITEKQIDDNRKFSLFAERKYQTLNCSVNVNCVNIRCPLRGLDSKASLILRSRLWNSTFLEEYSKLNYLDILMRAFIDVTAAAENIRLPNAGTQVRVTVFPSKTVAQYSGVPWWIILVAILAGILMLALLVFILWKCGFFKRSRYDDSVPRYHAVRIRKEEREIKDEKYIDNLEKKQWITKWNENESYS
Sequence of UniProt Q15545 (Q15545 whole entry): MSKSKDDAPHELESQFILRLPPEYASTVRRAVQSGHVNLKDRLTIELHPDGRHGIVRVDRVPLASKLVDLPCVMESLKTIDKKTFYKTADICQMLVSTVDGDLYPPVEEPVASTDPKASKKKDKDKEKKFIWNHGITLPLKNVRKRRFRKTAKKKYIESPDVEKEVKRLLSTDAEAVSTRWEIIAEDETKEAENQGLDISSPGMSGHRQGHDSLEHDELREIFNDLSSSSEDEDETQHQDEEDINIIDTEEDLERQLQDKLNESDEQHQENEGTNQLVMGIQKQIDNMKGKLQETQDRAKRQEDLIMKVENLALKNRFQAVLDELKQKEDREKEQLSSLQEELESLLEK
Sequence of UniProt Q15036 (Q15036 whole entry): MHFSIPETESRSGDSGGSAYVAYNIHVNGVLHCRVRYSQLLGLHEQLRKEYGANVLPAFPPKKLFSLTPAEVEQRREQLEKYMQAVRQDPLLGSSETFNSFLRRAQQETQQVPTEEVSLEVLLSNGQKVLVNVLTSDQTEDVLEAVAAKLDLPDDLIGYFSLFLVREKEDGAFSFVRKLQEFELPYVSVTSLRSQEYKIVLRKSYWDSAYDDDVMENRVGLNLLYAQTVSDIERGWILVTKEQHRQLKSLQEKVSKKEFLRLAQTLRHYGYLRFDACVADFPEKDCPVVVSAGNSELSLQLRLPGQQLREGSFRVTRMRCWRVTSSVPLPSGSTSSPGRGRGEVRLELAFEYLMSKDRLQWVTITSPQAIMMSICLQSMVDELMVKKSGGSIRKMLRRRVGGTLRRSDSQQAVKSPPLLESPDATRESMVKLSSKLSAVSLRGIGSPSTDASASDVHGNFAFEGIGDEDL
Sequence of UniProt P35354 (P35354 whole entry): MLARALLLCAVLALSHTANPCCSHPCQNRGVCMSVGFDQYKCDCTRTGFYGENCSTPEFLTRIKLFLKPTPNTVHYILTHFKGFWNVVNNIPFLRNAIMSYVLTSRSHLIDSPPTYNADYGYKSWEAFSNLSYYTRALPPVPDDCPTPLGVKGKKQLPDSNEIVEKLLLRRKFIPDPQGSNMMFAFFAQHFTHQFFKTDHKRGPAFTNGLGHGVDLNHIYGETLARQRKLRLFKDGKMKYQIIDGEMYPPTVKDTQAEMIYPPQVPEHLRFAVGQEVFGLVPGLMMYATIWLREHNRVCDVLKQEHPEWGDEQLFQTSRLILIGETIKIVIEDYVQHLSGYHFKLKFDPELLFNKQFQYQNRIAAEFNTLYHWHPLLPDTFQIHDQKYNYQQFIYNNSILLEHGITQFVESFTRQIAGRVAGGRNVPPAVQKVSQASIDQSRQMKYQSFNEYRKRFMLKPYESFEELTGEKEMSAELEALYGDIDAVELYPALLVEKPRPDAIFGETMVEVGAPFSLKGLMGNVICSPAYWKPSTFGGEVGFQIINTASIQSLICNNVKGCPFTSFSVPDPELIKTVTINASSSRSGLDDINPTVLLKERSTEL
Sequence of UniProt P62136 (P62136 whole entry): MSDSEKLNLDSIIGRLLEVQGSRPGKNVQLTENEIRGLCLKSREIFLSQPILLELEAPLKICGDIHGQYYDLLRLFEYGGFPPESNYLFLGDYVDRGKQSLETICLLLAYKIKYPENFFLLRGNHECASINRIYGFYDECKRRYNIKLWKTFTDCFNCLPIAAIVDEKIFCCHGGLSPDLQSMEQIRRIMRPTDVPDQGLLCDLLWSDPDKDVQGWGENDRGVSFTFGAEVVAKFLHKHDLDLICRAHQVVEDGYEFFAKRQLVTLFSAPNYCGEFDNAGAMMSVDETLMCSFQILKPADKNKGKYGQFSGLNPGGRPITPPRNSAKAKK
Sequence of UniProt Q8NBI5 (Q8NBI5 whole entry): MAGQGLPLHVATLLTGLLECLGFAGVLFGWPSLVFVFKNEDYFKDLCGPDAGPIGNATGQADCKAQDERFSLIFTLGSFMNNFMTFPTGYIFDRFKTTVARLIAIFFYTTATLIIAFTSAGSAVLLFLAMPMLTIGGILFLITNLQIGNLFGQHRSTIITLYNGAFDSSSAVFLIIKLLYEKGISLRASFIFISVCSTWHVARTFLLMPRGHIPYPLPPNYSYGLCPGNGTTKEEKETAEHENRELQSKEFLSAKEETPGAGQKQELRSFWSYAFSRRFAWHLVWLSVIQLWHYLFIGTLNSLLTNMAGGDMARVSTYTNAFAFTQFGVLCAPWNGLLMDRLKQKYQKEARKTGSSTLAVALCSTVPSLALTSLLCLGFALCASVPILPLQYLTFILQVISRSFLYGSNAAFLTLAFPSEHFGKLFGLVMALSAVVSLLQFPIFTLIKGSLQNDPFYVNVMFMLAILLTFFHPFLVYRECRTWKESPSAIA
Sequence of UniProt P51798 (P51798 whole entry): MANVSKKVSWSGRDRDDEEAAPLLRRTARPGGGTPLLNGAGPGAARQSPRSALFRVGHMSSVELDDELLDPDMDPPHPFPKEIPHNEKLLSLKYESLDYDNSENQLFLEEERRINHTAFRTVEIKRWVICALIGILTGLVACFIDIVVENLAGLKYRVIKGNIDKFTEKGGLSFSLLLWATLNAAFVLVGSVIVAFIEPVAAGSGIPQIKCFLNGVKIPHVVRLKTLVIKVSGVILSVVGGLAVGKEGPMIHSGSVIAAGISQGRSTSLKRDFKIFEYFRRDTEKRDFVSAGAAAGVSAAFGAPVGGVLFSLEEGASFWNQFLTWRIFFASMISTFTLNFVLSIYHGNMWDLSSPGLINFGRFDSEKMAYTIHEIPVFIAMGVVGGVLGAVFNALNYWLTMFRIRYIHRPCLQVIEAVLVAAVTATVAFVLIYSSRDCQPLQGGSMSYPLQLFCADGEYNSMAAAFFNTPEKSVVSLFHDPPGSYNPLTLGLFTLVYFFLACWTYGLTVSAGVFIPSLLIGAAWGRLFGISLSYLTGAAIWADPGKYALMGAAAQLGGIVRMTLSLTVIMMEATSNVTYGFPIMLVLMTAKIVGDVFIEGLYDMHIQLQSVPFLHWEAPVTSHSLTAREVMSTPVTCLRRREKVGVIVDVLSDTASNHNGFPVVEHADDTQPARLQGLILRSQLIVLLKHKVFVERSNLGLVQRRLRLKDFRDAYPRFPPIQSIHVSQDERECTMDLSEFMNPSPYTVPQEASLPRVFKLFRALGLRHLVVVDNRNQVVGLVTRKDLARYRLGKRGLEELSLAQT
Sequence of UniProt Q9BT73 (Q9BT73 whole entry): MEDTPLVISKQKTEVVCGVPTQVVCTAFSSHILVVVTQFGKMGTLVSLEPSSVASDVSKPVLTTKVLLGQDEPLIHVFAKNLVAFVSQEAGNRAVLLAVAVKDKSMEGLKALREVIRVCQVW

With HMG20A (UniProt Q9NP66) as the target, how does the thermal stability z-score read?
Its thermal stability z-score is 0.344.

With HSP90AB4P (UniProt Q58FF6) as the target, how does the thermal stability z-score read?
The thermal stability z-score was -0.635.

For PRPF4 (UniProt O43172), which thermal stability z-score is on record?
Its thermal stability z-score is 0.565.

For CLTC (UniProt Q00610), which thermal stability z-score is on record?
Its thermal stability z-score is -0.263.

Which thermal stability z-score does the source give for PTGS2 (UniProt P35354) here?
Its thermal stability z-score is 0.269.

For TECR (UniProt Q9NZ01), which thermal stability z-score is on record?
Its thermal stability z-score is -0.077.

How did the thermal stability z-score turn out when CMTR1 (UniProt Q8N1G2) was run?
The thermal stability z-score was 1.15.

How did the thermal stability z-score turn out when CNOT4 (UniProt O95628) was run?
The thermal stability z-score was 0.494.

Which thermal stability z-score does the source give for ITGA6 (UniProt P23229) here?
The thermal stability z-score was 0.156.

How did the thermal stability z-score turn out when FAM114A1 (UniProt Q8IWE2) was run?
Its thermal stability z-score is 0.106.

YEATS4 (UniProt O95619) was tested. Which thermal stability z-score did it give?
Its thermal stability z-score is -0.33.

For OSGEPL1 (UniProt Q9H4B0), which thermal stability z-score is on record?
The thermal stability z-score was -0.494.

How did the thermal stability z-score turn out when SNX17 (UniProt Q15036) was run?
Its thermal stability z-score is -0.423.

For SAC3D1 (UniProt A6NKF1), which thermal stability z-score is on record?
Its thermal stability z-score is -1.27.

How did the thermal stability z-score turn out when RPL28 (UniProt P46779) was run?
Its thermal stability z-score is -0.548.

SARAF (UniProt Q96BY9) was tested. Which thermal stability z-score did it give?
The thermal stability z-score was 0.00539.

With SNAP29 (UniProt O95721) as the target, how does the thermal stability z-score read?
The thermal stability z-score was 0.554.

Which thermal stability z-score does the source give for C1ORF131 (UniProt Q8NDD1) here?
The thermal stability z-score was -0.733.

How did the thermal stability z-score turn out when SYNE2 (UniProt Q8WXH0) was run?
Its thermal stability z-score is -0.123.

With CRYBG3 (UniProt Q68DQ2) as the target, how does the thermal stability z-score read?
The thermal stability z-score was -0.00726.

Which thermal stability z-score does the source give for CLCN7 (UniProt P51798) here?
The thermal stability z-score was 0.0852.

With CCNB2 (UniProt O95067) as the target, how does the thermal stability z-score read?
The thermal stability z-score was 0.36.

With CD59 (UniProt P13987) as the target, how does the thermal stability z-score read?
The thermal stability z-score was 3.07.

PSMG3 (UniProt Q9BT73) was tested. Which thermal stability z-score did it give?
The thermal stability z-score was 0.28.

GNPAT (UniProt O15228) was tested. Which thermal stability z-score did it give?
Its thermal stability z-score is 0.518.

TAF7 (UniProt Q15545) was tested. Which thermal stability z-score did it give?
Its thermal stability z-score is 0.641.

PPP1CA (UniProt P62136) was tested. Which thermal stability z-score did it give?
The thermal stability z-score was -0.971.

For SLC43A3 (UniProt Q8NBI5), which thermal stability z-score is on record?
The thermal stability z-score was 0.807.

With ABI2 (UniProt Q9NYB9) as the target, how does the thermal stability z-score read?
The thermal stability z-score was 0.72.

With VPS29 (UniProt Q9UBQ0) as the target, how does the thermal stability z-score read?
Its thermal stability z-score is -0.613.

How did the thermal stability z-score turn out when L2HGDH (UniProt Q9H9P8) was run?
Its thermal stability z-score is 0.523.

For HAUS7 (UniProt Q99871), which thermal stability z-score is on record?
Its thermal stability z-score is -0.0643.

For SBDS (UniProt Q9Y3A5), which thermal stability z-score is on record?
The thermal stability z-score was 0.306.

With POLR1A (UniProt O95602) as the target, how does the thermal stability z-score read?
Its thermal stability z-score is -2.59.

EP300 (UniProt Q09472) was tested. Which thermal stability z-score did it give?
The thermal stability z-score was -0.866.

GOLT1B (UniProt Q9Y3E0) was tested. Which thermal stability z-score did it give?
Its thermal stability z-score is -0.117.

Which thermal stability z-score does the source give for USP8 (UniProt P40818) here?
Its thermal stability z-score is 0.561.

With TSC2 (UniProt P49815) as the target, how does the thermal stability z-score read?
Its thermal stability z-score is 0.0977.

For AKAP8L (UniProt Q9ULX6), which thermal stability z-score is on record?
Its thermal stability z-score is -0.163.

With LIN7C (UniProt Q9NUP9) as the target, how does the thermal stability z-score read?
Its thermal stability z-score is 0.379.

Which thermal stability z-score does the source give for ING1 (UniProt Q9UK53) here?
The thermal stability z-score was -1.34.

How did the thermal stability z-score turn out when JUP (UniProt P14923) was run?
The thermal stability z-score was 1.07.

With HDHD2 (UniProt Q9H0R4) as the target, how does the thermal stability z-score read?
Its thermal stability z-score is -0.185.

GABARAP (UniProt O95166) was tested. Which thermal stability z-score did it give?
Its thermal stability z-score is -0.223.

With KCTD12 (UniProt Q96CX2) as the target, how does the thermal stability z-score read?
Its thermal stability z-score is 1.37.

Which thermal stability z-score does the source give for PSMG1 (UniProt O95456) here?
Its thermal stability z-score is 4.18.

Which thermal stability z-score does the source give for ZNF609 (UniProt O15014) here?
The thermal stability z-score was -0.0848.

CFL2 (UniProt Q9Y281) was tested. Which thermal stability z-score did it give?
The thermal stability z-score was -0.466.

PALLD (UniProt Q8WX93) was tested. Which thermal stability z-score did it give?
The thermal stability z-score was -0.249.

Which thermal stability z-score does the source give for PDZD11 (UniProt Q5EBL8) here?
Its thermal stability z-score is 0.0963.

With NCSTN (UniProt Q92542) as the target, how does the thermal stability z-score read?
The thermal stability z-score was -0.207.

UCK1 (UniProt Q9HA47) was tested. Which thermal stability z-score did it give?
Its thermal stability z-score is 0.121.

For TPR (UniProt P12270), which thermal stability z-score is on record?
The thermal stability z-score was -2.19.

UniProt F5GYJ5 was tested. Which thermal stability z-score did it give?
The thermal stability z-score was 0.166.

With RPL31 (UniProt P62899) as the target, how does the thermal stability z-score read?
The thermal stability z-score was -0.8.

With ARFGAP2 (UniProt Q8N6H7) as the target, how does the thermal stability z-score read?
The thermal stability z-score was 0.0541.

With GAK (UniProt O14976) as the target, how does the thermal stability z-score read?
The thermal stability z-score was 0.475.

How did the thermal stability z-score turn out when IPO8 (UniProt O15397) was run?
Its thermal stability z-score is 0.756.

With MTSS1L (UniProt Q765P7) as the target, how does the thermal stability z-score read?
Its thermal stability z-score is -0.228.

Which thermal stability z-score does the source give for CD81 (UniProt P60033) here?
The thermal stability z-score was -0.753.

With ARPP19 (UniProt P56211) as the target, how does the thermal stability z-score read?
Its thermal stability z-score is -0.359.

For CNTLN (UniProt Q9NXG0), which thermal stability z-score is on record?
The thermal stability z-score was -0.0711.

For GALK1 (UniProt P51570), which thermal stability z-score is on record?
The thermal stability z-score was -0.534.

How did the thermal stability z-score turn out when YKT6 (UniProt O15498) was run?
Its thermal stability z-score is -0.597.

How did the thermal stability z-score turn out when SLC38A5 (UniProt Q8WUX1) was run?
Its thermal stability z-score is -0.311.

TOR1AIP2 was tested. Which thermal stability z-score did it give?
Its thermal stability z-score is -0.134.

For ATP9A (UniProt O75110), which thermal stability z-score is on record?
Its thermal stability z-score is -0.569.

PFKL (UniProt P17858) was tested. Which thermal stability z-score did it give?
The thermal stability z-score was 0.476.

With AHNAK2 (UniProt Q8IVF2) as the target, how does the thermal stability z-score read?
The thermal stability z-score was 1.42.

For PIN1 (UniProt Q13526), which thermal stability z-score is on record?
The thermal stability z-score was 0.757.

KCTD5 (UniProt Q9NXV2) was tested. Which thermal stability z-score did it give?
The thermal stability z-score was -1.43.

Compound: NC(=O)CCCCC1CCSS1 [lipoamide]
Experiment: as above
Details: HeLa; lipoamide concentration 100 µM; arsenate co-treatment: 1 mM arsenate 1 h
Experimental: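 Cellular thermal proteome profiling in HeLa cells. Cells were treated with 100 µM lipoamide for 1 h, with or without 1 mM arsenate for a further 1 h, then heated to ten temperatures (37-66.3 °C), and soluble protein was quantified by TMT mass spectrometry relative to 0.1% DMSO controls. The thermal stability score (sum of log2 fold changes minus the abundance score) was transformed to a z-score; mean of n = 3 experiments.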

How did the thermal stability z-score turn out when HMG20A (UniProt Q9NP66) was run?
Its thermal stability z-score is 0.359.

HSP90AB4P (UniProt Q58FF6) was tested. Which thermal stability z-score did it give?
The thermal stability z-score was 0.361.

Which thermal stability z-score does the source give for PRPF4 (UniProt O43172) here?
The thermal stability z-score was 1.82.

CLTC (UniProt Q00610) was tested. Which thermal stability z-score did it give?
The thermal stability z-score was 0.447.

How did the thermal stability z-score turn out when PTGS2 (UniProt P35354) was run?
The thermal stability z-score was -0.361.

For TECR (UniProt Q9NZ01), which thermal stability z-score is on record?
The thermal stability z-score was -1.46.

Which thermal stability z-score does the source give for CMTR1 (UniProt Q8N1G2) here?
Its thermal stability z-score is -0.292.

How did the thermal stability z-score turn out when CNOT4 (UniProt O95628) was run?
The thermal stability z-score was -0.171.

For ITGA6 (UniProt P23229), which thermal stability z-score is on record?
Its thermal stability z-score is -0.0761.

For FAM114A1 (UniProt Q8IWE2), which thermal stability z-score is on record?
The thermal stability z-score was -0.474.

For YEATS4 (UniProt O95619), which thermal stability z-score is on record?
The thermal stability z-score was 0.802.

How did the thermal stability z-score turn out when OSGEPL1 (UniProt Q9H4B0) was run?
The thermal stability z-score was 0.0734.

How did the thermal stability z-score turn out when SNX17 (UniProt Q15036) was run?
Its thermal stability z-score is -0.581.

SAC3D1 (UniProt A6NKF1) was tested. Which thermal stability z-score did it give?
The thermal stability z-score was -1.55.

How did the thermal stability z-score turn out when RPL28 (UniProt P46779) was run?
Its thermal stability z-score is 0.57.

With SARAF (UniProt Q96BY9) as the target, how does the thermal stability z-score read?
The thermal stability z-score was -0.355.

Which thermal stability z-score does the source give for SNAP29 (UniProt O95721) here?
The thermal stability z-score was -0.254.

C1ORF131 (UniProt Q8NDD1) was tested. Which thermal stability z-score did it give?
Its thermal stability z-score is 1.04.

SYNE2 (UniProt Q8WXH0) was tested. Which thermal stability z-score did it give?
Its thermal stability z-score is -0.0307.

Which thermal stability z-score does the source give for CRYBG3 (UniProt Q68DQ2) here?
The thermal stability z-score was -0.828.

Which thermal stability z-score does the source give for CLCN7 (UniProt P51798) here?
Its thermal stability z-score is -0.792.

With CCNB2 (UniProt O95067) as the target, how does the thermal stability z-score read?
The thermal stability z-score was 0.346.

Which thermal stability z-score does the source give for CD59 (UniProt P13987) here?
The thermal stability z-score was 0.714.

How did the thermal stability z-score turn out when PSMG3 (UniProt Q9BT73) was run?
Its thermal stability z-score is 0.436.

For GNPAT (UniProt O15228), which thermal stability z-score is on record?
Its thermal stability z-score is 0.161.

TAF7 (UniProt Q15545) was tested. Which thermal stability z-score did it give?
Its thermal stability z-score is -0.3.

For PPP1CA (UniProt P62136), which thermal stability z-score is on record?
The thermal stability z-score was 0.221.

For SLC43A3 (UniProt Q8NBI5), which thermal stability z-score is on record?
Its thermal stability z-score is 0.34.

For ABI2 (UniProt Q9NYB9), which thermal stability z-score is on record?
Its thermal stability z-score is 0.0724.

VPS29 (UniProt Q9UBQ0) was tested. Which thermal stability z-score did it give?
The thermal stability z-score was -0.418.

With L2HGDH (UniProt Q9H9P8) as the target, how does the thermal stability z-score read?
Its thermal stability z-score is -0.736.

For HAUS7 (UniProt Q99871), which thermal stability z-score is on record?
The thermal stability z-score was 0.0237.

SBDS (UniProt Q9Y3A5) was tested. Which thermal stability z-score did it give?
Its thermal stability z-score is 0.328.

With POLR1A (UniProt O95602) as the target, how does the thermal stability z-score read?
Its thermal stability z-score is 0.371.

For EP300 (UniProt Q09472), which thermal stability z-score is on record?
The thermal stability z-score was -0.212.
